Values quoted from earlier work as cited in article PMC7756498 (Chemistry (Weinheim an Der Bergstrasse, Germany), 2020).

Tested on: P. aeruginosa
Conditions: ref [18]

Substance: sansanmycin B [sansanmycin B 13]
- MIC (anti-Pseudomonas activity): 4 to 16 mg/L
